US20170136001A1, “METHOD OF TREATING A VIRAL INFECTION USING ELVITEGRAVIR COMBINATIONS” (priority 2007, published 2017)

Experiments:
[1] = Example 2: pharmacokinetic interaction, EVG/ATV 300/400 mg versus EVG/r 300/100 mg, with midazolam CYP3A probe; details: midazolam oral syrup 5 mg with last dose; EVG/ATV vs. EVG/r
Method: This study evaluated the safety and steady-state pharmacokinetics of the co-administered Compound and ATV.
Healthy subjects received EVG/r 300/100 mg or EVG/ATV 300/400 mg in a randomized, crossover manner for 10 days each, with the last dose being coadministered with the CYP3A probe substrate midazolam (oral syrup; 5 mg) and pharmacokinetic (PK) sampling performed. […] ATV, midazolam, and ritonavir pharmacokinetics were also determined for descriptive statistics.

[2] = Study 1: steady-state pharmacokinetic interaction between atazanavir/r and the Compound (200 mg); format: in vivo, human
Source text: This study evaluated the safety and steady-state pharmacokinetics of the coadministered Compound and ATV/r.

[3] = Study 2: steady-state pharmacokinetic interaction between atazanavir/r and the Compound (85 mg test, 150 mg reference); format: in vivo, human
Source text: Consideration was given to achieving equivalent Compound exposures in patients receiving and not receiving atazanavir using pharmacokinetic (bio-) equivalence comparisons (Pharsight Corporation, Mountain View, Calif., USA). Consideration was also given to minimizing the number of individuals with extreme outliers in (low or high) exposures.

Cc1ncc2n1-c1ccc(Cl)cc1C(c1ccccc1F)=NC2 [midazolam]
midazolam AUCinf geometric mean ratio (90% CI) [1]: 89.5 (80.7, 99.3) | midazolam Cmax geometric mean ratio (90% CI) [1]: 98.8 (89.6, 109)

COc1cc2c(cc1Cc1cccc(Cl)c1F)c(=O)c(C(=O)O)cn2[C@H](CO)C(C)C [the Compound, 6-(3-chloro-2-fluorobenzyl)-1-[(2S)-1-hydroxy-3-methylbutan-2-yl]-7-methoxy-4-oxo-1,4-dihydroquinoline-3-carboxylic acid]
AUCtau % GMR (90% CI) ([2]; Study 1, coadministration (the Compound 200 mg + ATV/r 300/100 mg QD) : alone, 14 days, healthy subjects): 200% | the Compound exposures upon coadministration with ATV/r ([2]; coadministration with ATV/r): elevated | systemic exposure ([3]; 85 mg of the Compound with ritonavir-boosted atazanavir compared with the 150 mg dose of the Compound alone): equivalent

COC(=O)N[C@H](C(=O)N[C@@H](Cc1ccccc1)[C@@H](O)CN(Cc1ccc(-c2ccccn2)cc1)NC(=O)[C@@H](NC(=O)OC)C(C)(C)C)C(C)(C)C [ATV, 1-[4-(pyridine-2-yl)-phenyl]-4(S)-2,5-bis-[N—(N-methoxycarbonyl-(L)-tert-leucyl)amino]-6-phenyl-2-axahexane]
Cmax % GMR (90% CI) ([3]; Study 2, coadministration (the Compound 85 mg + ATV/r 300/100 mg QD) : alone (the Compound reference 150 mg), 14 days, healthy subjects): 96.0% | ATV exposures ([3]; with the reduced 85 mg dose of the Compound): not affected
